Assay results taken from patent US10947244B2, “Forms of a PI3K delta selective inhibitor for use in pharmaceutical formulations” (Rhizen Pharmaceuticals SA, priority 2014, dated 2021).

Assay: Particle size (PSD) analysis, Malvern Master Sizer 2000 dry powder
Assay type: physicochemical
Settings: PTSA salt of TGR-1202; average of three experiments
Experimental: Particle size (PSD) analysis of the PTSA salts of TGR-1202 prepared in Examples 1 and 2 was performed as described below using a Malvern Master Sizer 2000 with the Scirocco 2000 dry powder system. The instrument parameters were: • Particle RI: 1.50 • Absorption index: 0.1 • Obscuration range: 1-5% • Analysis Model: General purpose • Sensitivity: Normal • Air Pressure: 2.0 Bar • Feed rate: 30% • Sample measurement Time: 6 Second • Background measurement Time: 6 Second • Number of measurement cycle: 1
Procedure: 5 g of TGR-1202 was transferred into a sample measuring cell (i.e., Scirocco 2000) and the airflow was started. Laser intensity was maintained more than 70%. Measurement was started and the vibration feed rate was increased in order to achieve the obscuration within the limits. Once the obscuration came within the limit, measurement was recorded. Analysis was performed in triplicate and the results provided are an average of three experiments.

| Structure (SMILES) | d(0.1) [μm] | d(0.5) [μm] | d(0.9) [μm] |
| --- | --- | --- | --- |
| CC(C)Oc1ccc(-c2nn([C@@H](C)c3oc4ccc(F)cc4c(=O)c3-c3cccc(F)c3)c3ncnc(N)c23)cc1F [Example 1, (S)-2-(1-(4-amino-3-(3-fluoro-4-isopropoxyphenyl)-1H-pyrazolo[3,4-d]pyrimidin-1-yl)ethyl)-6-fluoro-3-(3-fluorophenyl)-4H-chromen-4-one 4-methyl-benzenesulfonate] | 8.01 | 147.41 | 510.73 |
| CC(C)Oc1ccc(-c2nn([C@@H](C)c3oc4ccc(F)cc4c(=O)c3-c3cccc(F)c3)c3ncnc(N)c23)cc1F [Example 2, (S)-2-(1-(4-amino-3-(3-fluoro-4-isopropoxyphenyl)-1H-pyrazolo[3,4-d]pyrimidin-1-yl)ethyl)-6-fluoro-3-(3-fluorophenyl)-4H-chromen-4-one 4-methyl-benzenesulfonate] | 1.07 | 3.98 | 12.18 |
